Converted amounts (≈) assume the structure as drawn. Some results are limits rather than exact numbers.

The nature of data set [1]: Lipophilicity, log D of the compound. It counts as physicochemical. Particulars: octanol/water.
In data set [2] the target is Voltage-gated inwardly rectifying potassium channel KCNH2 (Homo sapiens, UniProt Q12809). Nature of the data set: Inhibition of human ERG.
Data set [3] in a line: Oral bioavailability in rat. The note with it: in vivo. It counts as ADME, organism-based.
A short description of data set [4]: Apparent permeability from apical to basolateral side of human Caco2 cells. It counts as ADME, cell-based. Particulars: Caco-2.
Data set [5] is described as follows: Clearance in rat. It counts as ADME, organism-based. The note with it: in vivo.
Data set [6] is described as follows: Volume of distribution at steady state in rat. Particulars: in vivo, read-out: Vdss. It counts as ADME, organism-based.
The nature of data set [7]: Solubility of the compound. It counts as physicochemical.
The target in data set [8] is T1, Hexokinase-4 (Homo sapiens, UniProt P35557).
T1 sequence (P35557 whole entry): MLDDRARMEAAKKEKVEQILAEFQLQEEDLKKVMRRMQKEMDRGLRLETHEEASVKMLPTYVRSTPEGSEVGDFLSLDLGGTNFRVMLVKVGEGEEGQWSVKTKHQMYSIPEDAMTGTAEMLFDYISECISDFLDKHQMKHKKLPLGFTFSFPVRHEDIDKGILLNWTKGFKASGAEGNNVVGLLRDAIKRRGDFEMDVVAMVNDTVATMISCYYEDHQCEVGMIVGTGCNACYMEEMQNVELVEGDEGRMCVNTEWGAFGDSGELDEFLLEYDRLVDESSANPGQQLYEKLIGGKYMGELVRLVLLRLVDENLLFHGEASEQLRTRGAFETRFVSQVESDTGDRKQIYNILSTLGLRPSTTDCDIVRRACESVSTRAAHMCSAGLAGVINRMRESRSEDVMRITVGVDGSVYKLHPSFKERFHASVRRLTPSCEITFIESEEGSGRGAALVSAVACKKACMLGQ
Description: Activation of glucokinase (unknown origin).

Data set [9] in a line: Volume of distribution at steady state in dog. The note with it: in vivo, read-out: Vdss. It counts as ADME, organism-based, Canis lupus familiaris.
A short description of data set [10]: Clearance in dog. It counts as ADME, organism-based, Canis lupus familiaris. The note with it: in vivo.
A short description of data set [11]: Oral bioavailability in dog. It counts as ADME, organism-based, Canis lupus familiaris. The note with it: in vivo.
The subject of data set [12] is Rattus norvegicus. Description: Antidiabetic activity in high fat fed Zucker rat assessed as reduction of AUC of plasma glucose level at 3 mg/kg by oral glucose tolerance test. It counts as functional. The arrangement: scale not given: the % may be the effect or the level left.
For data set [13], the system named is Rattus norvegicus. Nature of the data set: Antidiabetic activity in high fat fed Zucker rat assessed as reduction of AUC of plasma glucose level at 10 mg/kg by oral glucose tolerance test. It counts as functional. Also noted: scale not given: the % may be the effect or the level left.

Sequence of Voltage-gated inwardly rectifying potassium channel KCNH2 (Q12809 whole entry): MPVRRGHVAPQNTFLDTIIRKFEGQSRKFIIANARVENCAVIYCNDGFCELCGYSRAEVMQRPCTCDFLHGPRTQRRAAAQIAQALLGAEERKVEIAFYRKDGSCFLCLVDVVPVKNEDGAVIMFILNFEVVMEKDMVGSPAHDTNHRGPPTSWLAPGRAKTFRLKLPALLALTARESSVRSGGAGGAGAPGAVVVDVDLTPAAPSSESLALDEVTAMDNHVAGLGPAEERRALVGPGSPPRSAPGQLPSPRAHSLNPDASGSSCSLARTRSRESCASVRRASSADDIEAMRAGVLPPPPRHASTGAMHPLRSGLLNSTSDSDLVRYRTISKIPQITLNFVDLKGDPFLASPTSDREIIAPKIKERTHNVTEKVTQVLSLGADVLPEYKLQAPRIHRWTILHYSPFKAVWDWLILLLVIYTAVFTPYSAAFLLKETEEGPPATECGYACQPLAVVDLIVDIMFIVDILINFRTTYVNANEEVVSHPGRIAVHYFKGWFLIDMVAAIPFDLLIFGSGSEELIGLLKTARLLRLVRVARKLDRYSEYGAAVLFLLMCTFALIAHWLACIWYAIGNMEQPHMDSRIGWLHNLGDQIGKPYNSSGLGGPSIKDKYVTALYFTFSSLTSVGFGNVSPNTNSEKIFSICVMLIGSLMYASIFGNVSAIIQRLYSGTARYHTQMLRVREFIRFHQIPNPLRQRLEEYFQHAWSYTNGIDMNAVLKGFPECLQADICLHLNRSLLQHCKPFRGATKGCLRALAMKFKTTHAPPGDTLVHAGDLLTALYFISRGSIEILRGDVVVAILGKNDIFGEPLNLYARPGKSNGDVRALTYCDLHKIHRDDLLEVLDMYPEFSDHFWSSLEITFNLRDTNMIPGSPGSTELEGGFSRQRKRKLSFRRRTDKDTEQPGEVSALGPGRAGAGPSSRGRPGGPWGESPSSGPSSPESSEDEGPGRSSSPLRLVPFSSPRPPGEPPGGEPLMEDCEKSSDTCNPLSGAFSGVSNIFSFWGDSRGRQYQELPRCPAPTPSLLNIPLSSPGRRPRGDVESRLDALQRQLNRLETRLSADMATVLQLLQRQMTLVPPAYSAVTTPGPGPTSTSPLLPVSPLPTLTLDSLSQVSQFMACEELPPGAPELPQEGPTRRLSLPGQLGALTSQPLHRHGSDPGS

By logD is commonly meant the decadic logarithm of the distribution of all forms, ionised or not, between an organic phase and buffer at a given pH. What is called IC50 is the concentration that inhibits the measured activity by half. As usually defined, the bioavailability is the share of a dose that reaches the circulation, judged against a reference dose that is usually intravenous. As a reminder, the Papp A→B is how fast a substance crosses the layer from the apical side. By clearance is commonly meant the rate of elimination divided by the concentration. The term solubility denotes the dissolved amount per volume that the medium holds. One may read the EC50 as the concentration at which the effect is half-maximal. In turn, `C[C@@H](CO)Oc1cc(Oc2ccc(C(=O)N(C)C)cc2)cc(C(=O)Nc2ccn(C)n2)c1` gave a logD in [1] of 1.7. In addition, the IC50 in data set [2] is more than 100 µM. Moreover, the bioavailability in data set [3] was found to be 78%. The Papp A→B in data set [4] came to 1.7 ×10⁻⁶ cm/s. For the same compound, the clearance in data set [5] was 31 mL/min/kg. Further, the Vd in data set [6] came out at 1.9 L/kg. The compound further showed a solubility in [7] of more than 1000 µM. The compound further showed a 50% effective concentration (EC50) in data set [8] of 40 nM.

Regarding `COC[C@H](C)Oc1cc(Oc2ccc(S(C)(=O)=O)cc2)cc(C(=O)Nc2nc(C)ns2)c1`, the bioavailability in [3] was found to be 71%; in data set [11] it was 56%. In addition, the Vd in [9] was 0.3 L/kg; in [6] it was 0.2 L/kg. The clearance in data set [10] is 0.5 mL/min/kg; in data set [5] it was 5.6 mL/min/kg. For the same compound, the Activity in [12] was 27%.

Regarding `COC[C@H](C)Oc1cc(Oc2ccc(S(C)(=O)=O)cc2)cc(C(=O)Nc2nccs2)c1`, the bioavailability in [3] turned out to be 28%; in data set [11] it was 11%. Also, the Vd came to 0.8 L/kg in data set [9] and 0.3 L/kg in data set [6]. Moreover, the clearance in data set [10] was found to be 7.2 mL/min/kg; in [5], 11 mL/min/kg. Further, the Activity in data set [13] amounted to 29%.

For `C[C@@H](CO)Oc1cc(Oc2ccc(C(=O)N3CCC3)cc2)cc(C(=O)Nc2ccn(C)n2)c1`, the logD in data set [1] turned out to be 1.8. The same compound displayed a half-inhibitory concentration (IC50) in data set [2] of 70 µM. Moreover, the bioavailability came to 30% in [3] and 51% in data set [11]. Besides, the results for the Vd in data set [9] and in data set [6] were 1.3 L/kg and 1.8 L/kg, respectively. For the same compound, the apparent permeability from apical to basolateral (Papp A→B) in data set [4] stood at 1.8 ×10⁻⁶ cm/s. The clearance in data set [10] and in data set [5] was 14 mL/min/kg in each case. The solubility in [7] was determined as 350 µM (≈ 158 µg/mL). For the same compound, the half-maximal effective concentration (EC50) in data set [8] was found to be 30 nM. The Activity in data set [12] amounted to 24%.

Consider `COC[C@H](C)Oc1cc(Oc2ccc(C(=O)N(C)C)cc2)cc(C(=O)Nc2cc[nH]n2)c1`, for which, in data set [1], the logD was determined as 1.8. The IC50 in [2] is more than 95 µM. The bioavailability in [3] came out at 27%. In addition, the Papp A→B in [4] is 2.3 ×10⁻⁶ cm/s. The clearance in data set [5] worked out at 34 mL/min/kg. In addition, in [6], the Vd is 1.1 L/kg. Besides, the solubility in data set [7] amounted to 730 µM (≈ 320 µg/mL). Moreover, a half-maximal response in data set [8] (EC50) required 50 nM.

The values are drawn from ChEMBL document CHEMBL3217434, “Matrix-based multiparameter optimisation of glucokinase activators: the discovery of AZD1092” (Medchemcomm, 2011).
